In experiment [1] the target is T1, human Nav 1.7 channels stably expressed in HEK 293 cells (Homo sapiens, UniProt Q15858).
T1 construct: expressed in transfected cells; host or cells: HEK 293
Put plainly: IonWorks Quattro automated patch-clamp, inactivated state block of Nav 1.7. It counts as cell-based. Particulars: double-pulse protocol, HEK 293 cells held at -100 mV, read-out: potency for the Nav 1.7 sodium ion channel (IC50, IonWorks). How it is done: (§1) IonWorks® Experimental Procedure
(§2) Compounds were tested on human Nav 1.7 and Nav 1.5 channels stably expressed in HEK 293 cells. Sodium current measurements on IonWorks Quattro: An automated patch-clamp assay on the IonWorks Quattro platform (Molecular Devices) was used to measure state-dependent inhibition of human Nav 1.7 and Nav 1.5 channels. Cells were sealed on a planar substrate using the Population Patch Plate (PPC) technology. Electrical access was obtained using both nystatin and amphotericin. A double-pulse protocol was used for the determination of IC50 values for inactivated state block. Nav 1.7 and Nav 1.5 expressing cells were voltage clamped at −100 mV and −110 mV, respectively. A depolarizing prepulse to −10 mV (Nav 1.7) or −30 mV (Nav 1.5) for 1000 ms followed by a 10 ms repolarization to ˜100 mV (Nav1.7) or −110 mV (Nav 1.5) was given to generate fractional channel inactivation of ˜50%, followed by a 10 ms test pulse to −10 mV (Nav 1.7) or −30 mV (Nav 1.5) to measure peak current in control conditions and after compound addition. The following recording solutions were used (mM). External: 150 NaCl, 2 CaCl2, 5 KCl, 1 Mg Cl2, 10 HEPES, 12 Dextrose; internal: 120 CsF, 30 CsCl, 10 EGTA, 5 HEPES, 5 NaF, 2 MgCl2.
(§3) For all electrophysiology experiments, offline analysis was used to determine percent inhibition as a function of drug concentration. IC50 values were determined by fitting to the Hill equation.
(§4) The various compounds in Examples 1 through 4 and Tables 1 through 3 exemplified above were assayed for activity and selectivity using the foregoing IonWorks® technique. The results are reported in the following paragraph in a format expressing the identification of the compound with reference Example and compound (e.g. Ex 1-9 is Example 1, compound 9) followed by the observed potency in nM and the ratio of Nav1.7 potency: Nav1.5 potency as described here. Thus, Ex1-9: 1.7=65/ratio=641 identifies compound Example 1, compound 9 as having 65 nM potency for the Nav 1.7 sodium ion channel (as measured by IonWorks®) and a ratio of 641 Nav 1.7: Nav 1.5 potency, determined by IonWorks® measurement.
For orientation: Patch clamp records ionic current or voltage across a cell membrane.

The target in experiment [2] is T2, human Nav 1.5 channels stably expressed in HEK 293 cells (Homo sapiens, UniProt Q14524).
T2 construct: expressed in transfected cells; host or cells: HEK 293
T2 sequence (Q14524 whole entry): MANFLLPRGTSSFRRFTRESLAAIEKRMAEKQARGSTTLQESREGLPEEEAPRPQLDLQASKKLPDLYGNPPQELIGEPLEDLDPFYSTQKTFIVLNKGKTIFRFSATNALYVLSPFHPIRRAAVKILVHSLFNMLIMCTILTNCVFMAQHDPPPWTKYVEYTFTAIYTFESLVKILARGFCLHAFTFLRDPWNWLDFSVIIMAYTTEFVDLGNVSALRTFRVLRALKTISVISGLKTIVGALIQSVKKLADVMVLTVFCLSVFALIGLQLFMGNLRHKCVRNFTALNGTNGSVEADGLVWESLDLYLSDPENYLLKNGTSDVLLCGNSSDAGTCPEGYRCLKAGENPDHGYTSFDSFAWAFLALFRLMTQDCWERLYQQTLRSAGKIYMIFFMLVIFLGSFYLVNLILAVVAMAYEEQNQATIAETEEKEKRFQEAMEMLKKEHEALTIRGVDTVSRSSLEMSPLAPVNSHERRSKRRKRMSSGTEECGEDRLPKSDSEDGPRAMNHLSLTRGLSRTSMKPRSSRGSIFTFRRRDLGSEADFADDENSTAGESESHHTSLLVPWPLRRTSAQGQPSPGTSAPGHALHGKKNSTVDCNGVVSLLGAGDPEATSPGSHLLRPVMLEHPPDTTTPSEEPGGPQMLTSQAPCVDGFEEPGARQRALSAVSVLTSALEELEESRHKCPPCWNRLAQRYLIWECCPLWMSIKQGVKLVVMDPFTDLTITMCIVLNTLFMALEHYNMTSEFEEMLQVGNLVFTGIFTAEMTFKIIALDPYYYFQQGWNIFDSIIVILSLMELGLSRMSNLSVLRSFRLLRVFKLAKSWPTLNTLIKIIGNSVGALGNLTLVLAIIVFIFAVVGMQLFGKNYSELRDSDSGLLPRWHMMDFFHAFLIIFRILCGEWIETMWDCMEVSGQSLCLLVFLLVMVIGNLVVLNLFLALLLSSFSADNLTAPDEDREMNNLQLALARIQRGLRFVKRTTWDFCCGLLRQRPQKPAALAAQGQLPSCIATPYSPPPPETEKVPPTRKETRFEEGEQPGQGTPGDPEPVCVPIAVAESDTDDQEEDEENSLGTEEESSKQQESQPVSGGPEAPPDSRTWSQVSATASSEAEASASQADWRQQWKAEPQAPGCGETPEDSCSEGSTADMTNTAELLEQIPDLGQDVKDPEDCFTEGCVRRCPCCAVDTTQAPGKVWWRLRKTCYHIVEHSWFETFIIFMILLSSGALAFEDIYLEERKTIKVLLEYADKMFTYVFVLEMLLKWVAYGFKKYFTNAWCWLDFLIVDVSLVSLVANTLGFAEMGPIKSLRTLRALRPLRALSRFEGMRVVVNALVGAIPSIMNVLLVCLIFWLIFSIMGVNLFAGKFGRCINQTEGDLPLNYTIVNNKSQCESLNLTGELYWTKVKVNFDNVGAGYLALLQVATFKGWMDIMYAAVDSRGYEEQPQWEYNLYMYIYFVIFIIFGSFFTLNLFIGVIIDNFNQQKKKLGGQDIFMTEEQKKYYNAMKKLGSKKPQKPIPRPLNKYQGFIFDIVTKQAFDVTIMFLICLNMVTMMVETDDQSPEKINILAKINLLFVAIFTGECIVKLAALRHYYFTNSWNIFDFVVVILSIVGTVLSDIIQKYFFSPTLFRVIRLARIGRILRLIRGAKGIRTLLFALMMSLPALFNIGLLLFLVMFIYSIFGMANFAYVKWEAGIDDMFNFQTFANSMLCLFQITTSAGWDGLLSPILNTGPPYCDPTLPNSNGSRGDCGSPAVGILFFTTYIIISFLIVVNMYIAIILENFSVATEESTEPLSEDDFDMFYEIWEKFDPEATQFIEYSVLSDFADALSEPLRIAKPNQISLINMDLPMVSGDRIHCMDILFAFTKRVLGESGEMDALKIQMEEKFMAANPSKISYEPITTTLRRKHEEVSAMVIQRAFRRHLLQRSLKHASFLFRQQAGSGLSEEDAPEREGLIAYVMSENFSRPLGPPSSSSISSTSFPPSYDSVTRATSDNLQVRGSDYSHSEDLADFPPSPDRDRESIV
Kind of experiment: IonWorks Quattro automated patch-clamp, inactivated state block of Nav 1.5 (reported as ratio to Nav 1.7 potency). The format is cell-based. Particulars: selectivity for Nav 1.7 over Nav 1.5, both by IonWorks. How it is done: as §1, §2, §3, §4

Structures are written as SMILES. A value given as a limit tells only on which side of the number the result lay.

T1 sequence (Q15858 whole entry): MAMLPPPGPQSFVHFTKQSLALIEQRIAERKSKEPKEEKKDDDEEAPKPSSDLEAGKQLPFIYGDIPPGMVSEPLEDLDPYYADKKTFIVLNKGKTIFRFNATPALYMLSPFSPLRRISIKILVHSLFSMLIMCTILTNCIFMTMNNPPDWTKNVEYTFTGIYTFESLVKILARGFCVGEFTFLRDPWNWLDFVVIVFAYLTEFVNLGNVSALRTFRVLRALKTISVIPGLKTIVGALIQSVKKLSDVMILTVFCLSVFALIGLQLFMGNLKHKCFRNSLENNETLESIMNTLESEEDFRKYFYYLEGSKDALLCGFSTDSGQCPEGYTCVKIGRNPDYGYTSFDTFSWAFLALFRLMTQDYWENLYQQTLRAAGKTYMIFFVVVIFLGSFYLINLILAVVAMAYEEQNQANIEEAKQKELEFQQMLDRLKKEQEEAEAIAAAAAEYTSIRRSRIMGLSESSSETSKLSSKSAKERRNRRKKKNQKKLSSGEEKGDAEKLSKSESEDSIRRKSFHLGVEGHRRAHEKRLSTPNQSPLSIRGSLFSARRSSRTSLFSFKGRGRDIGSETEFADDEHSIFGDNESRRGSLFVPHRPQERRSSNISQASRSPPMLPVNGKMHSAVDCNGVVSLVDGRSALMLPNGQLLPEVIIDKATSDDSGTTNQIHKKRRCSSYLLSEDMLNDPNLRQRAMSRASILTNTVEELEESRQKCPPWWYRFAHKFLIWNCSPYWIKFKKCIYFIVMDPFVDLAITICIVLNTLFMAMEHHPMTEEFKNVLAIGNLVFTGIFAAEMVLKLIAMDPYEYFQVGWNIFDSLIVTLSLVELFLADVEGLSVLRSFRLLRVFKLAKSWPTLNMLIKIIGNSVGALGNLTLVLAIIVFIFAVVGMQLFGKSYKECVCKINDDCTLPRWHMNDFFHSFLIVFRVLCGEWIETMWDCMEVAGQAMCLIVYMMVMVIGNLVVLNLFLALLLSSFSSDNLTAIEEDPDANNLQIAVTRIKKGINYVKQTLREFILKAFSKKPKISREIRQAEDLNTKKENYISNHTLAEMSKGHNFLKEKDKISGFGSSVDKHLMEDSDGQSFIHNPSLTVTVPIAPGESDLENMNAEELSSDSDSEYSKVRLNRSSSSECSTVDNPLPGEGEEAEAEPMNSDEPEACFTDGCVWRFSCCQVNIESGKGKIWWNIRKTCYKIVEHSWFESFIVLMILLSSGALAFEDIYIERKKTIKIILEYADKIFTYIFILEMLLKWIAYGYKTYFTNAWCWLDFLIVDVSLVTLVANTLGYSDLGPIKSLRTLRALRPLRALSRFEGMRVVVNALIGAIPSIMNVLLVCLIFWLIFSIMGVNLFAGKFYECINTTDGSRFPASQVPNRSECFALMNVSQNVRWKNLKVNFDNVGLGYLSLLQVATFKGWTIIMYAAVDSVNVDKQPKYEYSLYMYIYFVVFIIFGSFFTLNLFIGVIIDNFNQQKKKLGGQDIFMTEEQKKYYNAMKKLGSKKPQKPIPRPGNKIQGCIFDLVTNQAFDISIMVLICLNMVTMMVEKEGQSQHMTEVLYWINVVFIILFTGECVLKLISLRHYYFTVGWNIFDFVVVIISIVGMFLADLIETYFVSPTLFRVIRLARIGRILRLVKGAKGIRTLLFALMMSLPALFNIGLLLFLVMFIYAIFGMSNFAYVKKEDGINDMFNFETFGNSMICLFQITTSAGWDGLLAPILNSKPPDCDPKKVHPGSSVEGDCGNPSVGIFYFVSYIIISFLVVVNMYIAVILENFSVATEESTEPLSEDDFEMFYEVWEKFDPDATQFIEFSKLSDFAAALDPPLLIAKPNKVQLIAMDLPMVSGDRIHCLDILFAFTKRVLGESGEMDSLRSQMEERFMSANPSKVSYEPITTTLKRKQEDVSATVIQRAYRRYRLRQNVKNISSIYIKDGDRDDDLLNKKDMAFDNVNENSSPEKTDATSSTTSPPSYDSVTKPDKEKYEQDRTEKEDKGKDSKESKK

Broadly, the IC50 is the concentration needed to halve the response being measured. In the case of `O=S(=O)(Nc1nccs1)c1cc(Cl)c(NCCCCNC2C[C@@H]3C[C@H]2CN3)cc1F` (stereo partly drawn) [Ex 1-24, 4-({4-[(1S,4S)-2-azabicyclo[2.2.1]hept-5-ylamino]butyl}amino)-5-chloro-2-fluoro-N-1,3-thiazol-2-ylbenzenesulfonamide], in experiment [1], the IC50 amounted to 17 nM. Besides, the “ratio of Nav 1.7 : Nav 1.5 potency (IonWorks)” value (“ratio” below) in experiment [2] is more than 1940.

Regarding `O=S(=O)(Nc1nccs1)c1cc(Cl)c(NCCCCN[C@@H]2[C@H]3CC[C@@H]2NC3)cc1F` [Ex 1-25, 4-({4-[(1S,4S,7R)-2-azabicyclo[2.2.1]hept-7-ylamino]butyl}amino)-5-chloro-2-fluoro-N-1,3-thiazol-2-ylbenzenesulfonamide], the IC50 in experiment [1] worked out at 21 nM. The “ratio” value in experiment [2] is listed as more than 1590.

In the case of `O=S(=O)(Nc1nccs1)c1cc(Cl)c(NCCCCNC2CNCC(c3ccccc3)C2)cc1F` (stereo not shown) [Ex 1-31, 5-chloro-2-fluoro-4-({4-[(5-phenylpiperidin-3-yl)amino]butyl}amino)-N-1,3-thiazol-2-ylbenzenesulfonamide], the IC50 in experiment [1] came to 37 nM. For the same molecule, in experiment [2], the “ratio” value was more than 890.

For the molecule `COc1cccc(CC2(CNCCCCNc3cc(F)c(S(=O)(=O)Nc4nccs4)cc3Cl)CCCN2)c1` (stereo not shown) [Ex 1-34, 5-chloro-2-fluoro-4-{[4-({[2-(3-methoxy-benzyl)-pyrrolidin-2-yl]methyl}-amino)-butyl]amino}-N-1,3-thiazol-2-yl-benzenesulfonamide], the half-inhibitory concentration (IC50) in experiment [1] was determined as 64 nM. In experiment [2], the “ratio” value is given as more than 510.

For the molecule `N[C@@H]1CCCN(CCCCNc2cc(F)c(S(=O)(=O)Nc3nccs3)cc2Cl)C1` [Ex 1-35, 4-({4-[(3R)-3-aminopiperidin-1-yl]butyl}amino)-5-chloro-2-fluoro-N-1,3-thiazol-2-ylbenzenesulfonamide], in experiment [1], the IC50 came to 190 nM. In experiment [2], the “ratio” value was more than 170.

Consider `N[C@@H]1CCN(CCCCNc2cc(F)c(S(=O)(=O)Nc3nccs3)cc2Cl)C1` [Ex 1-36, 4-({4-[(3R)-3-aminopyrrolidin-1-yl]butyl}amino)-5-chloro-2-fluoro-N-1,3-thiazol-2-ylbenzenesulfonamide], for which, in experiment [1], the IC50 turned out to be 18 nM. Further, the “ratio” value in experiment [2] is on record as more than 1830.

Regarding `N[C@H]1CCCN(CCCCNc2cc(F)c(S(=O)(=O)Nc3nccs3)cc2Cl)C1` [Ex 1-37, 4-({4-[(3S)-3-aminopiperidin-1-yl]butyl}amino)-5-chloro-2-fluoro-N-1,3-thiazol-2-ylbenzenesulfonamide], the IC50 in experiment [1] came to 97 nM. Further, in experiment [2], the “ratio” value is more than 340.

As to `O=S(=O)(Nc1nccs1)c1cc(Cl)c(NCCCCN2CCCC3(CCCN3)C2)cc1F` (stereo not shown) [Ex 1-39, 5-chloro-4-{[4-(1,7-diazaspiro[4.5]dec-7-yl)butyl]amino}-2-fluoro-N-1,3-thiazol-2-ylbenzenesulfonamide], in experiment [1], the IC50 came to 130 nM. The “ratio” value in experiment [2] is listed as more than 250.

For `NC[C@H]1CCCN1CCCCNc1cc(F)c(S(=O)(=O)Nc2nccs2)cc1Cl` [Ex 1-41, 4-({4-[(2R)-2-(aminomethyl)pyrrolidin-1-yl]butyl}amino)-5-chloro-2-fluoro-N-1,3-thiazol-2-ylbenzenesulfonamide], the IC50 in experiment [1] worked out at 48 nM. Besides, the “ratio” value in experiment [2] is on record as more than 690.

Turning to `NCC1CCN(CCCCNc2cc(F)c(S(=O)(=O)Nc3nccs3)cc2Cl)C1` (stereo not shown) [Ex 1-47, 4-({4-[3-(aminomethyl)pyrrolidin-1-yl]butyl}amino)-5-chloro-2-fluoro-N-1,3-thiazol-2-ylbenzenesulfonamide], the IC50 in experiment [1] amounted to 22 nM. Besides, the “ratio” value in experiment [2] is recorded as more than 1500.

On to `O=S(=O)(Nc1nccs1)c1cc(Cl)c(NCCCCN2CCC3CNCC3C2)cc1F` (stereo not shown) [Ex 1-48, 5-chloro-2-fluoro-4-{[4-(octahydro-5H-pyrrolo[3,4-c]pyridin-5-yl)butyl]amino}-N-1,3-thiazol-2-ylbenzenesulfonamide], for which the IC50 in experiment [1] was found to be 23 nM. The “ratio” value in experiment [2] was more than 1434.

As to `NC1CCN(CCCCNc2cc(F)c(S(=O)(=O)Nc3nccs3)cc2Cl)CC1` [Ex 1-49, 4-{[4-(4-aminopiperidin-1-yl)butyl]amino}-5-chloro-2-fluoro-N-1,3-thiazol-2-ylbenzenesulfonamide], the IC50 in experiment [1] came to 33 nM. Also, the “ratio” value in experiment [2] is more than 1000.

For the molecule `NCC1(c2ccccc2)CCN(CCCCNc2cc(F)c(S(=O)(=O)Nc3nccs3)cc2Cl)C1` (stereo not shown) [Ex 1-50, 4-({4-[3-(aminomethyl)-3-phenylpyrrolidin-1-yl]butyl}amino)-5-chloro-2-fluoro-N-1,3-thiazol-2-ylbenzenesulfonamide], the 50% inhibitory concentration (IC50) in experiment [1] was determined as 46 nM. Besides, in experiment [2], the “ratio” value is more than 717.

`NCC1CN(CCCCNc2cc(F)c(S(=O)(=O)Nc3nccs3)cc2Cl)C1` [Ex 1-51, 4-({4-[3 (aminomethyl)azetidin-1-yl]butyl}amino)-5-chloro-2-fluoro-N-1,3-thiazol-2-ylbenzenesulfonamide]: the IC50 in experiment [1] stood at 15 nM. The “ratio” value in experiment [2] is given as more than 2200.

In the case of `O=S(=O)(Nc1nccs1)c1cc(Cl)c(NCCCCN2CCC3CCC(C2)N3)cc1F` (stereo not shown) [Ex 1-52, 5-chloro-4-{[4-(3,9-diazabicyclo[4.2.1]non-3-yl)butyl]amino}-2-fluoro-N-1,3-thiazol-2-ylbenzenesulfonamide], the IC50 in experiment [1] is 96 nM. Also, in experiment [2], the “ratio” value is given as more than 343.

Turning to `O=S(=O)(Nc1nccs1)c1cc(Cl)c(NCCCCN2CCCNCC2)cc1F` [Ex 1-53, 5-chloro-4-{[4-(1,4-diazepan-1-yl)butyl]-amino}-2-fluoro-N-1,3-thiazol-2-yl-benzenesulfonamide], the IC50 in experiment [1] worked out at 79 nM. For the same molecule, in experiment [2], the “ratio” value is more than 418.

With `O=S(=O)(Nc1nccs1)c1cc(Cl)c(NC[C@H]2C[C@@H]3CN(C[C@@H]4CCCN4)C[C@@H]3C2)cc1F` [Ex 6-8, 5-chloro-2-fluoro-4-[({(3aR,5R,6aS)-2-[(2S)-pyrrolidin-2-ylmethyl]octahydrocyclopenta[c]pyrrol-5-yl}methyl)amino]-N-1,3-thiazol-2-ylbenzenesulfonamide], in experiment [1], the IC50 came to 39 nM. For the same molecule, in experiment [2], the “ratio” value is on record as more than 850.

For the molecule `O=S(=O)(Nc1nccs1)c1cc(Cl)c(NCCCC(Cc2ccccc2)NC[C@@H]2CCCN2)cc1F` (stereo partly drawn) [Ex 6-9, 5-chloro-2-fluoro-4-[(5-phenyl-4-{[(2S)-pyrrolidin-2-ylmethyl]amino}pentyl)amino]-N-1,3-thiazol-2-ylbenzenesulfonamide], the IC50 in experiment [1] was 17 nM. The “ratio” value in experiment [2] is given as 1530.

Take `O=S(=O)(Nc1nccs1)c1ccc(NCCCCNC[C@@H]2CCCN2)c(C(F)(F)F)c1` [Ex 7-04, 4-[(4-{[(2S)-pyrrolidin-2-ylmethyl]amino}butyl)amino]-N-1,3-thiazol-2-yl-3-(trifluoromethyl)benzenesulfonamide]: the half-inhibitory concentration (IC50) in experiment [1] came out at 41 nM. The “ratio” value in experiment [2] is more than 800.

With `O=S(=O)(Nc1nccs1)c1ccc(NCCCCNC[C@@H]2CCCN2)c(Cl)c1` [Ex 7-12, 3-chloro-4-[(4-{[(2S)-pyrrolidin-2-ylmethyl]amino}butyl)amino]-N-1,3-thiazol-2-ylbenzenesulfonamide], in experiment [1], the IC50 worked out at 27 nM. The “ratio” value in experiment [2] is reported as more than 1200.

For the molecule `O=S(=O)(Nc1nccs1)c1cc(Cl)c(NCCCCNC[C@@H]2CC(F)(F)CN2)cc1F` [Ex 8-2, (S)-5-chloro-4-((4-(((4,4-difluoropyrrolidin-2-yl)methyl)amino)butyl)amino)-2-fluoro-N-(thiazol-2-yl)benzenesulfonamide], the IC50 in experiment [1] was 59 nM. In experiment [2], the “ratio” value came to 460.

`O=S(=O)(Nc1nccs1)c1cc(Cl)c(NCCCCNC[C@@H]2C[C@@H](c3ccccc3)CN2)cc1F` [Ex 8-4, 5-chloro-2-fluoro-4-{[4-({[(2S,4S)-4-phenyl-pyrrolidin-2-yl]methyl}-amino)butyl]amino}-N-1,3-thiazol-2-yl-benzenesulfonamide]: the IC50 in experiment [1] was 32 nM. Moreover, the “ratio” value in experiment [2] is reported as more than 1030.

Take `O=S(=O)(Nc1nccs1)c1cc(Cl)c(NCCCCNC[C@@H]2C[C@H](Oc3ccccc3)CN2)cc1F` [Ex 8-5, 5-chloro-2-fluoro-4-{[4-({[(2S,4S)-4-phenoxypyrrolidin-2-yl]methyl}amino)butyl]-amino}-N-1,3-thiazol-2-yl-benzenesulfonamide]: in experiment [1], the IC50 stood at 40 nM. In experiment [2], the “ratio” value is listed as 425.

Source of the values: patent US10968210B2, “Diamino-alkylamino-linked arylsulfonamide compounds with selective activity in voltage-gated sodium channels” (Merck Sharp & Dohme Corp., priority 2016, dated 2021).
